{"source": "patent US9221783B2", "about": "“Phenylalkyl sulfamate compound and muscle relaxant composition comprising the same” (BIO-PHARM SOLUTIONS CO., LTD., priority 2012, dated 2015)"}
{"tested_on": "male mice (ICR)", "assay": "Muscle relaxation activity by grip strength test (forelimbs)", "assay_type": "in vivo", "conditions": "Mus musculus, ip, intraperitoneal, ED50 = 50% of muscle relaxation activity compared to vehicle only (100%), determined at 0.5 h (time of maximum effect)", "description": "(§1) For testing, male mice (ICR) were purchased from ORIENT BIO INC. (Korea), divided into several groups with 6 mice in each group, and were adapted for 4-5 days. The mice having the weight ranging from 19 g to 26 g were employed for the test. The pharmacological effect of the test compounds on muscle relaxation was evaluated by Rotarod test, grip strength test, and muscular force (wire hang) test. All mice were adapted to the test environment at one hour before starting the tests. The pharmacological effects of all the test compounds were evaluated by administration through peritoneal cavity of the mice (10 ul/g, bw).\n(§2) The test was conducted before and after administration of the compounds to evaluate the effects thereof. […] The mouse was made to grip the rod with its forelimbs, and its tail was pulled, where the force at which the mouse detached from the rod was recorded. The instrument indicated the force in grams. All of the mice were given 3 opportunities for test, and the 3 highest values among the test opportunities were selected and the mean value was used as the test result. […] Psychopharmacol. 110: 92-96’.\n(§3) The obtained results are shown as mean±sem. The difference between the groups was statistically analyzed by ANOVA, and then, further examined by Dunnett's test or Bonferroni test. If p is less than 0.05, it was determined that the difference between the groups had statistical significance.", "units": {"ED50": "mg/kg"}}
{"smiles": "CC1(C)O[C@H](c2ccccc2I)[C@@H](COS(N)(=O)=O)O1", "note": "[Example 27, ((4R,5R)-5-(2-iodophenyl)-2,2-dimethyl-1,3-dioxolan-4-yl)methyl sulfamate]", "ED50": 378}
{"tested_on": "male mice (ICR)", "assay": "Muscle relaxation activity by grip strength test (forelimbs)", "assay_type": "in vivo", "conditions": "intraperitoneal, dose 200 (unit not given)", "description": "as §1, §2, §3"}
{"smiles": "CCC1(CC)O[C@@H](COS(N)(=O)=O)[C@H](c2ccccc2Cl)O1", "note": "[Example 8, ((4S,4S)-5-(2-chlorophenyl)-2,2-diethyl-1,3-dioxolan-4-yl)methyl sulfamate]", "Grip strength, percentage compared to the vehicle only (100%)": "200 (59.6%)"}
{"smiles": "NS(=O)(=O)OC[C@@H]1OC2(CCCC2)O[C@H]1c1ccccc1Cl", "note": "[Example 10, ((2S,3S)-3-(2-chlorophenyl)-1,4-dioxaspiro[4,4]nonan-2-yl)methyl sulfamate]", "Grip strength, percentage compared to the vehicle only (100%)": "200 (91.2%)"}
{"smiles": "NS(=O)(=O)OC[C@@H]1OC2(CCCCC2)O[C@H]1c1ccccc1Cl", "note": "[Example 12, ((2S,3S)-3-(2-chlorophenyl)-1,4-dioxaspiro[4,5]decan-2-yl)methyl sulfamate]", "Grip strength, percentage compared to the vehicle only (100%)": "200 (57.7%)"}
{"smiles": "CC1(C)O[C@@H](COS(N)(=O)=O)[C@H](c2ccc(Cl)cc2Cl)O1", "note": "[Example 40, ((4S,5S)-5-(2,4-dichlorophenyl)-2,2-dimethyl-1,3-dioxolan-4-yl)methyl sulfamate]", "Grip strength, percentage compared to the vehicle only (100%)": "200 (79.3%)"}
{"smiles": "CC1(C)O[C@@H](COS(N)(=O)=O)[C@H](c2c(Cl)cccc2Cl)O1", "note": "[Example 52, ((4S,5S)-5-(2,6-dichlorophenyl)-2,2-dimethyl-1,3-dioxolan-4-yl)methyl sulfamate]", "Grip strength, percentage compared to the vehicle only (100%)": "200 (28.2%)"}
{"smiles": "CCC1(CC)O[C@@H](COS(N)(=O)=O)[C@H](c2ccccc2N)O1", "note": "[Example 70, ((4S,5S)-5-(2-aminophenyl)-2,2-diethyl-1,3-dioxolan-4-yl)methyl sulfamate]", "Grip strength, percentage compared to the vehicle only (100%)": "200 (78.6%)"}
{"smiles": "Nc1ccccc1[C@@H]1OC2(CCCC2)O[C@H]1COS(N)(=O)=O", "note": "[Example 72, ((2S,3S)-3-(2-aminophenyl)-1,4-dioxaspiro[4,4]nonan-2-yl)methyl sulfamate]", "Grip strength, percentage compared to the vehicle only (100%)": "200 (87.0%)"}
{"smiles": "Nc1ccccc1[C@@H]1OC2(CCCCC2)O[C@H]1COS(N)(=O)=O", "note": "[Example 74, ((2S,3S)-3-(2-aminophenyl)-1,4-dioxaspiro[4,5]decan-2-yl)methyl sulfamate]", "Grip strength, percentage compared to the vehicle only (100%)": "200 (88.1%)"}
{"smiles": "Nc1ccccc1[C@@H]1OC(c2ccccc2)O[C@H]1COS(N)(=O)=O", "note": "(stereo partly drawn) [Example 76, ((4S,5S)-5-(2-aminophenyl)-2-phenyl-1,3-dioxolan-4-yl)methyl sulfamate]", "Grip strength, percentage compared to the vehicle only (100%)": "200 (78.5%)"}
{"smiles": "NS(=O)(=O)OC[C@@H]1OC(=O)O[C@H]1c1ccccc1[N+](=O)[O-]", "note": "[Example 90, ((4S,5S)-5-(2-nitrophenyl)-2-oxo-1,3-dioxolan-4-yl)methyl sulfamate]", "Grip strength, percentage compared to the vehicle only (100%)": "200 (43.8%)"}
{"smiles": "Cc1ccccc1[C@@H]1OC(C)(C)O[C@H]1COS(N)(=O)=O", "note": "[Example 92, ((4S,5S)-5-(2-methylphenyl)-2,2-dimethyl-1,3-dioxolan-4-yl)methyl sulfamate]", "Grip strength, percentage compared to the vehicle only (100%)": "200 (46.2%)"}
{"smiles": "CNc1ccccc1[C@@H]1OC(C)(C)O[C@H]1COS(=O)(=O)NC", "note": "[Example 104, ((4S,5S)-5-(2-methylaminophenyl)-2,2-dimethyl-1,3-dioxolan-4-yl)methyl methylsulfamate]", "Grip strength, percentage compared to the vehicle only (100%)": "200 (71.3%)"}
{"smiles": "CC1(C)O[C@@H](COS(N)(=O)=O)[C@H](c2ccccc2)O1", "note": "[Example 106, ((4S,5S)-5-phenyl-2,2-dimethyl-1,3-dioxolan-4-yl)methyl sulfamate]", "Grip strength, percentage compared to the vehicle only (100%)": "200 (62.8%)"}
{"smiles": "CCC1(CC)O[C@@H](COS(N)(=O)=O)[C@H](c2ccccc2)O1", "note": "[Example 108, ((4S,5S)-5-phenyl-2,2-diethyl-1,3-dioxolan-4-yl)methyl sulfamate]", "Grip strength, percentage compared to the vehicle only (100%)": "200 (66.8%)"}
{"smiles": "NS(=O)(=O)OC[C@@H]1OC2(CCCC2)O[C@H]1c1ccccc1", "note": "[Example 110, ((2S,3S)-3-phenyl-1,4-dioxaspiro[4,4]nonan-2-yl)methyl sulfamate]", "Grip strength, percentage compared to the vehicle only (100%)": "200 (62.9%)"}
{"smiles": "NS(=O)(=O)OC[C@@H]1OC2(CCCCC2)O[C@H]1c1ccccc1", "note": "[Example 112, ((2S,3S)-3-phenyl-1,4-dioxaspiro[4,5]decan-2-yl)methyl sulfamate]", "Grip strength, percentage compared to the vehicle only (100%)": "200 (33.2%)"}
{"smiles": "CC1(C)O[C@H](CCOS(N)(=O)=O)[C@@H](Cc2ccccc2)O1", "note": "[Example 114, 2-((4R,5R)-5-benzyl-2,2-dimethyl-1,3-dioxolan-4-yl)ethyl sulfamate]", "Grip strength, percentage compared to the vehicle only (100%)": "200 (75.4%)"}
{"smiles": "CCC1(CC)O[C@H](CCOS(N)(=O)=O)[C@@H](Cc2ccccc2)O1", "note": "[Example 116, 2-((4R,5R)-5-benzyl-2,2-diethyl-1,3-dioxolan-4-yl)ethyl sulfamate]", "Grip strength, percentage compared to the vehicle only (100%)": "200 (81.6%)"}
{"smiles": "NS(=O)(=O)OCC[C@H]1OC2(CCCC2)O[C@@H]1Cc1ccccc1", "note": "[Example 118, 2-((2R,3R)-3-benzyl-1,4-dioxaspiro[4,4]nonan-2-yl)ethyl sulfamate]", "Grip strength, percentage compared to the vehicle only (100%)": "200 (83.7%)"}
{"smiles": "NS(=O)(=O)OCC[C@H]1OC2(CCCCC2)O[C@@H]1Cc1ccccc1", "note": "[Example 120, 2-((2R,3R)-3-benzyl-1,4-dioxaspiro[4,5]decan-2-yl)ethyl sulfamate]", "Grip strength, percentage compared to the vehicle only (100%)": "200 (80.5%)"}
{"smiles": "CC1(C)O[C@H](COS(N)(=O)=O)[C@@H](Cc2ccccc2)O1", "note": "[Example 122, ((4R,5R)-5-benzyl-2,2-dimethyl-1,3-dioxolan-4-yl)methyl sulfamate]", "Grip strength, percentage compared to the vehicle only (100%)": "200 (61.6%)"}
{"smiles": "CCC1(CC)O[C@H](COS(N)(=O)=O)[C@@H](Cc2ccccc2)O1", "note": "[Example 124, ((4R,5R)-5-benzyl-2,2-diethyl-1,3-dioxolan-4-yl)methyl sulfamate]", "Grip strength, percentage compared to the vehicle only (100%)": "200 (81.0%)"}
{"smiles": "NS(=O)(=O)OC[C@H]1OC2(CCCC2)O[C@@H]1Cc1ccccc1", "note": "[Example 126, ((2R,3R)-3-benzyl-1,4-dioxaspiro[4,4]nonan-2-yl)methyl sulfamate]", "Grip strength, percentage compared to the vehicle only (100%)": "200 (76.7%)"}
{"smiles": "NS(=O)(=O)OC[C@H]1OC2(CCCCC2)O[C@@H]1Cc1ccccc1", "note": "[Example 128, ((2R,3R)-3-benzyl-1,4-dioxaspiro[4,5]decan-2-yl)methyl sulfamate]", "Grip strength, percentage compared to the vehicle only (100%)": "200 (81.4%)"}
{"smiles": "CC1(C)O[C@@H](CCOS(N)(=O)=O)[C@H](c2ccccc2)O1", "note": "[Example 130, 2-((4S,5S)-5-phenyl-2,2-dimethyl-1,3-dioxolan-4-yl)ethyl sulfamate]", "Grip strength, percentage compared to the vehicle only (100%)": "200 (91.4%)"}
{"smiles": "CCC1(CC)O[C@@H](CCOS(N)(=O)=O)[C@H](c2ccccc2)O1", "note": "[Example 132, 2-((4S,5S)-5-phenyl-2,2-diethyl-1,3-dioxolan-4-yl)ethyl sulfamate]", "Grip strength, percentage compared to the vehicle only (100%)": "200 (25.7%)"}
{"smiles": "NS(=O)(=O)OCC[C@@H]1OC2(CCCC2)O[C@H]1c1ccccc1", "note": "[Example 134, 2-((2S,3S)-3-phenyl-1,4-dioxaspiro[4,4]nonan-2-yl)ethyl sulfamate]", "Grip strength, percentage compared to the vehicle only (100%)": "200 (90.1%)"}
{"smiles": "NS(=O)(=O)OCC[C@@H]1OC2(CCCCC2)O[C@H]1c1ccccc1", "note": "[Example 136, 2-((2S,3S)-3-phenyl-1,4-dioxaspiro[4,5]decan-2-yl)ethyl sulfamate]", "Grip strength, percentage compared to the vehicle only (100%)": "200 (80.8%)"}
{"smiles": "CC1(C)O[C@H](CCOS(N)(=O)=O)[C@@H](Cc2ccccc2Cl)O1", "note": "[Example 138, 2-((4R,5R)-5-(2-chlorobenzyl)-2,2-dimethyl-1,3-dioxolan-4-yl)ethyl sulfamate]", "Grip strength, percentage compared to the vehicle only (100%)": "200 (70.1%)"}
{"smiles": "CCC1(CC)O[C@H](CCOS(N)(=O)=O)[C@@H](Cc2ccccc2Cl)O1", "note": "[Example 140, 2-((4R,5R)-5-(2-chlorobenzyl)-2,2-diethyl-1,3-dioxolan-4-yl)ethyl sulfamate]", "Grip strength, percentage compared to the vehicle only (100%)": "200 (73.4%)"}
{"smiles": "NS(=O)(=O)OCC[C@H]1OC2(CCCC2)O[C@@H]1Cc1ccccc1Cl", "note": "[Example 142, 2-((2R,3R)-3-(2-chlorobenzyl)-1,4-dioxaspiro[4,4]nonan-2-yl)ethyl sulfamate]", "Grip strength, percentage compared to the vehicle only (100%)": "200 (66.8%)"}
{"smiles": "NS(=O)(=O)OCC[C@H]1OC2(CCCCC2)O[C@@H]1Cc1ccccc1Cl", "note": "[Example 144, 2-((2R,3R)-3-(2-chlorobenzyl)-1,4-dioxaspiro[4,5]decan-2-yl)ethyl sulfamate]", "Grip strength, percentage compared to the vehicle only (100%)": "200 (62.0%)"}
{"smiles": "CC1(C)O[C@H](COS(N)(=O)=O)[C@@H](Cc2ccccc2Cl)O1", "note": "[Example 146, ((4R,5R)-5-(2-chlorobenzyl)-2,2-dimethyl-1,3-dioxolan-4-yl)methyl sulfamate]", "Grip strength, percentage compared to the vehicle only (100%)": "200 (79.2%)"}
{"smiles": "CCC1(CC)O[C@H](COS(N)(=O)=O)[C@@H](Cc2ccccc2Cl)O1", "note": "[Example 148, ((4R,5R)-5-(2-chlorobenzyl)-2,2-diethyl-1,3-dioxolan-4-yl)methyl sulfamate]", "Grip strength, percentage compared to the vehicle only (100%)": "200 (70.2%)"}
{"smiles": "NS(=O)(=O)OC[C@H]1OC2(CCCC2)O[C@@H]1Cc1ccccc1Cl", "note": "[Example 150, ((2R,3R)-3-(2-chlorobenzyl)-1,4-dioxaspiro[4,4]nonan-2-yl)methyl sulfamate]", "Grip strength, percentage compared to the vehicle only (100%)": "200 (89.8%)"}
